Earlier results, collected in US10881750B2, “Sentinel lymph node marker capable of multi-mode imaging” (NATIONAL CANCER CENTER, priority 2010, dated 2021).

Conditions: 18 breast cancer patients, clinical trials (Kitai et al., Breast Cancer 2005)

## CC1(C)C(/C=C/C=C/C=C/C=C2\N(CCCCS(=O)(=O)O)c3ccc4ccccc4c3C2(C)C)=[N+](CCCCS(=O)(=O)[O-])c2ccc3ccccc3c21 [indocyanine green]
  safety in clinical use: safe to use
